Measurements: ChEMBL document CHEMBL1201862, “PubChem BioAssay data set” (2004)
Values belong to the compound of their own block, whether it stands above or below them. Calls of active or inactive are those of the source. Unless noted, the rule behind the calls is not given here.

What was measured:
[1] = test system: Plasmodium falciparum; test: Primary qHTS for delayed death inhibitors of the malarial parasite plastid, 48 hour incubation. [Related pubchem assays (depositor defined):AID488752, AID488774, AID504848, AID504850]; type: functional; details: read-out: Potency
[2] = test system: Plasmodium falciparum; test: Primary qHTS for delayed death inhibitors of the malarial parasite plastid, 96 hour incubation. [Related pubchem assays (depositor defined):AID488745, AID488752, AID488774, AID504848, AID504850]; type: functional; details: read-out: Potency
[3] = test system: INS1; test: protection from cytokine-induced mitochondrial depolarization, dose response, cell-based, INS-1E, JC-1 fluorescence ratio, dry powder (AID 488931); type: functional; details: Rattus norvegicus
[4] = test system: INS1; test: protection from cytokine-driven beta-cell apoptosis, dose response, JC-1 fluorescence, INS-1E, dry powder, set 2 (AID 488867); type: functional, cell-based; details: Rattus norvegicus
[5] = test system: INS1; test: protection of INS-1E cells from cytokine death, dose response, ATP luminescence, dry powder (AID 488844); type: functional, cell-based; details: Rattus norvegicus
[6] = molecular target: Hexokinase-1 (Homo sapiens, UniProt P19367); test: SAR analysis of small molecule inhibitors of hexokinase domain containing I (HKDC1) in the hexokinase 1 selectivity assay. [Related pubchem assays (depositor defined):AID493160, AID493190]; type: functional
[7] = molecular target: T1, Hexokinase HKDC1 (Homo sapiens, UniProt Q2TB90); test: SAR analysis of small molecule inhibitors of hexokinase domain containing I (HKDC1). [Related pubchem assays (depositor defined):AID493160, AID493190]; type: functional
T1 sequence (Q2TB90 whole entry): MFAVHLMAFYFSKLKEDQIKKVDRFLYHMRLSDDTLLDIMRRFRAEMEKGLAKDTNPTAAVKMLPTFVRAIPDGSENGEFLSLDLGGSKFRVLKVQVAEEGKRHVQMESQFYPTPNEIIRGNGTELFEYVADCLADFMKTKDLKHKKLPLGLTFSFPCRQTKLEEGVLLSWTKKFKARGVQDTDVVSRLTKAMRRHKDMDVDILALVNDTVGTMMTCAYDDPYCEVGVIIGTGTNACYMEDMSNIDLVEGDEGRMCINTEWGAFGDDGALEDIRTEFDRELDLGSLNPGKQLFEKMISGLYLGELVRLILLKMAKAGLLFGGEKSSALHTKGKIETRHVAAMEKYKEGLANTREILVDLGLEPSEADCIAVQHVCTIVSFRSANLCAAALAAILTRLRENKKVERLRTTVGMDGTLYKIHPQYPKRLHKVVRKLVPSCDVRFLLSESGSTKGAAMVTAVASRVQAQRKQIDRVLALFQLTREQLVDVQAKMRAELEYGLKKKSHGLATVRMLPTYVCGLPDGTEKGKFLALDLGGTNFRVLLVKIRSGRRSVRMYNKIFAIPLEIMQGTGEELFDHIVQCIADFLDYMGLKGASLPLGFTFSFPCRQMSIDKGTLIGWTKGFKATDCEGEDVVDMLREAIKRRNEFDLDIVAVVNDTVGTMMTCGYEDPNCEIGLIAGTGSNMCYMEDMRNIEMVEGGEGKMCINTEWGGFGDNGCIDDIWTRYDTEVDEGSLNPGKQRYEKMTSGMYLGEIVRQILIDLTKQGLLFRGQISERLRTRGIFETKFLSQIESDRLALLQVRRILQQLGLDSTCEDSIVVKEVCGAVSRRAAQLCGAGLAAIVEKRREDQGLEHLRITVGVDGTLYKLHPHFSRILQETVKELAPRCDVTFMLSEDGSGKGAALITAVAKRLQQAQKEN

Chain of Hexokinase-1 (P19367 whole entry, the tested form may be a part): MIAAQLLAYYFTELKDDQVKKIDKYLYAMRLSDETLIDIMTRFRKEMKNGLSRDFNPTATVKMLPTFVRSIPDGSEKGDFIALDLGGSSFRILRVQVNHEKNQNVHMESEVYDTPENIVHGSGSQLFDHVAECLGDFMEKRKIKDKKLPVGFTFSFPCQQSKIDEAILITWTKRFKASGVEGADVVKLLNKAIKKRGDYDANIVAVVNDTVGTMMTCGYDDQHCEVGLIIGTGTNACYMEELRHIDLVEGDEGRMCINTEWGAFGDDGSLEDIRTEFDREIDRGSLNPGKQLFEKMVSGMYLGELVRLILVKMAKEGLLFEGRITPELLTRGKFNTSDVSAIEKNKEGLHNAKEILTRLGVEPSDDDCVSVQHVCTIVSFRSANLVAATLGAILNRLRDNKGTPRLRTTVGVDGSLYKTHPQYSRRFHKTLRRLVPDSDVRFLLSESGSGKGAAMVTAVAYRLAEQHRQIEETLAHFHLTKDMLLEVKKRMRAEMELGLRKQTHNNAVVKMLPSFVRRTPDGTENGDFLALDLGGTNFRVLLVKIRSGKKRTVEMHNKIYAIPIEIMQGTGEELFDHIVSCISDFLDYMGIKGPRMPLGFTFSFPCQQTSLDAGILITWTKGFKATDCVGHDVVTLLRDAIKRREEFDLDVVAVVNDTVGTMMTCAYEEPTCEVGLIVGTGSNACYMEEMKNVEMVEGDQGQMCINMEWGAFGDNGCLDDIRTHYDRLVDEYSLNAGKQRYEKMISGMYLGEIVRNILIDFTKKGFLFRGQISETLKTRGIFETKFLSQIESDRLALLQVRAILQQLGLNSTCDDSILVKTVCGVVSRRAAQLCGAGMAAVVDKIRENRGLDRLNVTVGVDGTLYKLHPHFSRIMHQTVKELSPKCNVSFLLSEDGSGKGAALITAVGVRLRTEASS

SMILES: CN(C)C1(CNC(=O)c2ccc(Cl)c(S(N)(=O)=O)c2)CCCCC1
- AC50 [1]: 9.29 µM (inactive)
- AC50 [2]: 20.8 µM (inactive)

SMILES: COc1ccc(S(=O)(=O)N(C)C[C@H]2Oc3c(NC(=O)Nc4cccc5ccccc45)cccc3C(=O)N([C@@H](C)CO)C[C@@H]2C)cc1
- AC50 [3]: 104 µM (active)
- AC50 [4]: > 260 µM (inactive)
- AC50 [5]: 85 µM (active)

- IC50 [6]: > 80 µM (inactive)
- IC50 [7]: > 80 µM (inactive)
SMILES: COc1cc2c(cc1OC)-c1cc(NCc3ccccc3)nc(=O)n1CC2
